Assay [1] concerns WEHI265.1. In words: Antiinflammatory activity in LPS-induced mouse WEHI265.1 cells assessed as reduction in IL-6 level at 10 uM by ELISA relative to control. In kind it is functional. (ELISA stands for enzyme-linked immunosorbent assay.)
The subject of assay [2] is WEHI265.1. In words: Antiinflammatory activity in LPS-induced mouse WEHI265.1 cells assessed as reduction in IL-6 level by ELISA. In kind it is functional, cell-based.
The subject of the next assay is Mus musculus. Kind of assay: Antiinflammatory activity in LPS-induced mouse model assessed as reduction in IL-6 level in serum at 25 mg/kg, po relative to control. The class given is functional.
The species entered for assay [3] is Homo sapiens. In words: Inhibition of MAPK (unknown origin) assessed as reduction in […] phosphorylation by cell based assay at 10 ug/ml relative to control.
Assay [4] deals with RAC-alpha serine/threonine-protein kinase (Homo sapiens) (UniProt P31749). Kind of assay: Inhibition of AKT (unknown origin) assessed as reduction in […] phosphorylation at 10 ug/ml by cell based assay relative to control.
Chain of RAC-alpha serine/threonine-protein kinase (Homo sapiens) (P31749 whole entry): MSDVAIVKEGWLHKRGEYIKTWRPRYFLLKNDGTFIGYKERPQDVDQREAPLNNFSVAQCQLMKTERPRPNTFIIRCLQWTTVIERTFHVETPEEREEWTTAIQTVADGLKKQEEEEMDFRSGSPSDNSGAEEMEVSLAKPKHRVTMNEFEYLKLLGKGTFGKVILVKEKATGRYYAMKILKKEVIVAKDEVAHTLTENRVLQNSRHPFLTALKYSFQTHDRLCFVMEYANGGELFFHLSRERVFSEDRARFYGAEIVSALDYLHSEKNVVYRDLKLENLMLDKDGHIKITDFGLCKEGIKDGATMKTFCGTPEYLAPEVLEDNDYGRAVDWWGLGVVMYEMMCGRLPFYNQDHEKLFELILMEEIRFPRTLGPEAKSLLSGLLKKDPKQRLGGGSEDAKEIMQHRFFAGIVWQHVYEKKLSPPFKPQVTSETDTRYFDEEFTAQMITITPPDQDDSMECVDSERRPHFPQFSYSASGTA
The species entered for assay [5] is Homo sapiens. In words: Inhibition of PI3K (unknown origin) assessed as reduction in PI3K phosphorylation by cell based assay at 10 ug/ml relative to control.
In a further assay the test system is RAW264.7. In words: Effect on IL-6 mRNA expression in mouse RAW264.7 cells at 10 ug/ml relative to control. The class given is functional.

As usually defined, the inhibition is the change of the read-out against control, counted positive when it falls. What is called IC50 is the concentration at which inhibition is half-maximal. As for `COc1ccccc1-c1c2n(c3c(c1=O)CCC3)CCN2`, in the assay with WEHI265.1 [1], the inhibition at 10 µM is 82%. Moreover, the IC50 with WEHI265.1 [2] came to 200 nM.
For `O=c1c2c(n3c(c1-c1ccccc1)SCC3)CCC2`, in that order: 52% and 200 nM.
The inhibition in vivo is the drop in the measured response relative to a control, in per cent. As to `Oc1ccc(-c2cncc(-c3ccc(O)cc3)c2)cc1`, the inhibition in vivo at 25 mg/kg with Mus musculus was determined as 71%. For the same molecule, the inhibition at 10 µM with WEHI265.1 [1] turned out to be 73%.
On to `Oc1ccc(-c2cncc(-c3ccc(O)cc3)n2)cc1`, for which the inhibition at 10 µM in the assay with WEHI265.1 [1] was found to be 55%.
As for `O=c1c2c(n3c(c1-c1ccccc1[N+](=O)[O-])NCC3)CCC2`, the inhibition at 10 µM in the assay with WEHI265.1 [1] stood at 73%. Further, the IC50 with WEHI265.1 [2] came out at 200 nM.
In the same order, the values of `CN1CCn2c3c(c(=O)c(-c4ccccc4)c21)CCC3` are 43% and 200 nM.
Regarding `Oc1ccc(-c2cccc(-c3ccc(O)cc3)c2)cc1`, in the assay on Mus musculus, the inhibition in vivo at 25 mg/kg was 88%. The inhibition at 10 µM in the assay with WEHI265.1 [1] stood at 85%.
`O=c1c2c(n3c(c1-c1ccccc1)OCC3)CCC2`: the inhibition at 10 µM in the assay on WEHI265.1 [1] turned out to be 20%. The half-maximal inhibitory concentration (IC50) in the assay on WEHI265.1 [2] turned out to be 200 nM.
Turning to `COC(=O)CCC(=O)Nc1ccccc1C(=O)OC`, the inhibition stood at 54% in the assay filed under Homo sapiens [3], 70% in assay [4] and 51% in the assay filed under Homo sapiens [5]. Further, in the assay on RAW264.7, the Activity was 33%.
In the case of `Nc1ccccc1-c1c2n(c3c(c1=O)CCC3)CCN2`, the inhibition at 10 µM with WEHI265.1 [1] was found to be 82%. Also, the IC50 in the assay on WEHI265.1 [2] amounted to 200 nM.
In the same order, the values of `O=c1c2c(n3c(c1-c1ccccc1)NCC3)CCC2` are 74% and 200 nM.
In the case of `O=c1c2c(n3c(c1-c1ccccc1Cl)NCC3)CCC2`, the inhibition at 10 µM in the assay with WEHI265.1 [1] worked out at 90%. Also, the IC50 in the assay with WEHI265.1 [2] came to 200 nM.
In the case of `CC(=O)Nc1ccccc1-c1c2n(c3c(c1=O)CCC3)CCN2`, the inhibition at 10 µM in the assay with WEHI265.1 [1] stood at 74%. In the assay with WEHI265.1 [2], the IC50 worked out at 200 nM.

These data come from ChEMBL document CHEMBL4627261, “A panoramic review of IL-6: Structure, pathophysiological roles and inhibitors” (Bioorg Med Chem, 2020).
